Measurements published in ChEMBL document CHEMBL5260810, “Inhibition of bromodomain-containing protein 9 for the prevention of epigenetically-defined drug resistance” (Bioorg Med Chem Lett, 2017).
The source made the active and inactive calls. The calls are words filed in the database; no cut-off is given here.

Tests used:
[1] = system: MIA PaCa-2; test: Antiproliferative activity against human MIA PaCa-2 cells assessed as reduction in colony formation up to 20 uM supplemented with fresh medium containing compound every 3 days for 9 days by MTT staining based clonogenic assay; type: functional, cell-based; conditions: time 9.0 day
[2] = system: BT-549; test: Antiproliferative activity against human BT-549 cells assessed as reduction in colony formation up to 20 uM supplemented with fresh medium containing compound every 3 days for 9 days by MTT staining based clonogenic assay; type: functional, cell-based; conditions: time 9.0 day
[3] = system: MDA-MB-231; test: Antiproliferative activity against human MDA-MB-231 cells assessed as reduction in colony formation upto 20 uM supplemented with fresh medium containing compound every 3 days for 9 days by MTT staining based clonogenic assay; type: functional, cell-based; conditions: time 9.0 day
[4] = system: A-375; test: Antiproliferative activity against human A-375 cells assessed as reduction in colony formation up to 20 uM supplemented with fresh medium containing compound every 3 days for 9 days by MTT staining based clonogenic assay; type: functional, cell-based; conditions: time 9.0 day
[5] = system: Kasumi 1; test: Cytotoxicity against human Kasumi 1 cells measured after 8 days; type: functional, cell-based; conditions: Kasumi 1, 192 h
[6] = molecular target: T1, Bromodomain-containing protein 9 (Homo sapiens) (UniProt Q9H8M2); test: Inhibition of BRD9 in human PC-9 cells assessed as reduction in ALDH1A1 gene expression at 0.5 uM preincubated with erlotinib for 8 days followed by compound addition and measured after 24 hrs by RNA sequencing analysis; type: cell-based
T1 sequence (whole entry): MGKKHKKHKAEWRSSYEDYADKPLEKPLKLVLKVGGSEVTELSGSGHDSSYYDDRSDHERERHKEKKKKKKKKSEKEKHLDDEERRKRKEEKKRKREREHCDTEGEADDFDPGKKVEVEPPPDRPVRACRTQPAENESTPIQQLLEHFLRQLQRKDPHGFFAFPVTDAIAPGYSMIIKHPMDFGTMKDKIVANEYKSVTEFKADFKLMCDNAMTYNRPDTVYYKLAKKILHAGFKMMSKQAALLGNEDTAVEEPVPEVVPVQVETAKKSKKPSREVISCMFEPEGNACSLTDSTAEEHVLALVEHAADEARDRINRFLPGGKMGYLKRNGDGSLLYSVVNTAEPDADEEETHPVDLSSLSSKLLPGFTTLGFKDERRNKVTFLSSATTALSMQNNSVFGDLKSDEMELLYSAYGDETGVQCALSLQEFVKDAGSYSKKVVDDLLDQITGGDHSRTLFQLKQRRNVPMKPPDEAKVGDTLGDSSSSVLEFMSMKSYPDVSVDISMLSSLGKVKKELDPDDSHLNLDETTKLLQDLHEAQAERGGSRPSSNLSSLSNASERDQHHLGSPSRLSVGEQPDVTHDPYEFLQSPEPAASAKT

[7] = molecular target: Bromodomain-containing protein 4 (Homo sapiens, UniProt O60885); test: Binding affinity to BRD4 in human PC-9 cell lysate assessed as increase in thermal stabilization at 2 uM at 38 to 71 degreeC measured after 30 mins by CETSA; type: subcellular
[8] = Cytotoxicity against human KMS-26 cells measured after 3 days; type: functional, cell-based; conditions: KMS-26, 72 h
[9] = system: Raji; test: Cytotoxicity against human Raji cells measured after 3 days; type: functional, cell-based; conditions: 72 h
[10] = system: SCC-3; test: Cytotoxicity against human SCC-3 cells measured after 3 days; type: functional, cell-based; conditions: SCC-3, 72 h
[11] = system: EB2; test: Cytotoxicity against human EB2 cells measured after 3 days; type: functional, cell-based; conditions: EB2, 72 h
[12] = system: EOL1; test: Cytotoxicity against human EOL1 cells measured after 3 days; type: functional, cell-based; conditions: EOL1, 72 h
[13] = system: TK-10; test: Cytotoxicity against human TK-10 cells measured after 3 days; type: functional, cell-based; conditions: TK-10, 72 h
[14] = system: SNU-398; test: Cytotoxicity against human SNU-398 cells measured after 3 days; type: functional, cell-based; conditions: SNU-398, 72 h
[15] = system: NOMO-1; test: Cytotoxicity against human NOMO-1 cells measured after 3 days; type: functional, cell-based; conditions: NOMO-1, 72 h
[16] = system: OCI-AML2; test: Cytotoxicity against human OCI-AML2 cells measured after 3 days; type: functional, cell-based; conditions: OCI-AML2, 72 h
[17] = system: OPM-2; test: Cytotoxicity against human OPM-2 cells measured after 3 days; type: functional, cell-based; conditions: OPM-2, 72 h
[18] = Cytotoxicity against human NCE-G 111 cells measured after 3 days; type: functional, cell-based; conditions: NCE-G 111, 72 h
[19] = system: HT; test: Cytotoxicity against human HT cells measured after 3 days; type: functional, cell-based; conditions: 72 h
[20] = system: BJAB; test: Cytotoxicity against human BJAB cells measured after 3 days; type: functional, cell-based; conditions: 72 h
[21] = system: JeKo-1; test: Cytotoxicity against human JeKo-1 cells measured after 3 days; type: functional, cell-based; conditions: JeKo-1, 72 h
[22] = system: Rec1; test: Cytotoxicity against human REC1 cells measured after 3 days; type: functional, cell-based; conditions: Rec1, 72 h
[23] = system: SU-DHL-1; test: Cytotoxicity against human SU-DHL-1 cells measured after 3 days; type: functional, cell-based; conditions: SU-DHL-1, 72 h
[24] = system: PEO1; test: Cytotoxicity against human PEO1 cells measured after 3 days; type: functional, cell-based; conditions: PEO1, 72 h
[25] = system: HEY; test: Cytotoxicity against human HEY cells measured after 3 days; type: functional, cell-based; conditions: 72 h
[26] = system: HCC1954; test: Cytotoxicity against human HCC1954 cells measured after 3 days; type: functional, cell-based; conditions: HCC1954, 72 h
[27] = system: MDA-MB-453; test: Cytotoxicity against human MDA-MB-453 cells measured after 3 days; type: functional, cell-based; conditions: MDA-MB-453, 72 h
[28] = system: YMB-1-E; test: Cytotoxicity against human YMB-1-E cells measured after 3 days; type: functional, cell-based; conditions: 72 h
[29] = system: MDA-MB-175-VII; test: Cytotoxicity against human MDA-MB-175-VII cells measured after 3 days; type: functional, cell-based; conditions: 72 h
[30] = Cytotoxicity against human SW527 cells measured after 3 days; type: functional, cell-based; conditions: SW527, 72 h
[31] = system: AU565; test: Cytotoxicity against human AU565 cells measured after 3 days; type: functional, cell-based; conditions: AU565, 72 h
[32] = system: MCF-10A; test: Cytotoxicity against human MCF-10A cells measured after 3 days; type: functional, cell-based; conditions: 72 h
[33] = Cytotoxicity against human ATRFLOX cells measured after 3 days; type: functional, cell-based; conditions: 72 h
[34] = Cytotoxicity against human OVCA432 cells measured after 3 days; type: functional, cell-based; conditions: OVCA432, 72 h
[35] = system: OVCAR-8; test: Cytotoxicity against human OVCAR-8 cells measured after 3 days; type: functional, cell-based; conditions: OVCAR-8, 72 h
[36] = Cytotoxicity against human COV318 cells measured after 3 days; type: functional, cell-based; conditions: COV318, 72 h
[37] = Cytotoxicity against human OVCAR433 cells measured after 3 days; type: functional, cell-based; conditions: OVCAR433, 72 h
[38] = system: OVCAR-5; test: Cytotoxicity against human OVCAR-5 cells measured after 3 days; type: functional, cell-based; conditions: OVCAR-5, 72 h
[39] = system: SU-DHL10; test: Cytotoxicity against human SU-DHL-10 cells measured after 3 days; type: functional, cell-based; conditions: SU-DHL10, 72 h
[40] = Cytotoxicity against human HCC1623 cells measured after 3 days; type: functional, cell-based; conditions: HCC1623, 72 h
[41] = system: MEL-HO; test: Cytotoxicity against human MEL-HO cells measured after 3 days; type: functional, cell-based; conditions: 72 h
[42] = system: NCI-H2030; test: Cytotoxicity against human NCI-H2030 cells measured after 8 days; type: functional, cell-based; conditions: NCI-H2030, 192 h
[43] = Cytotoxicity against human NCI-H820 cells measured after 8 days; type: functional, cell-based; conditions: NCI-H820, 192 h
[44] = system: NCI-H1573; test: Cytotoxicity against human NCI-H1573 cells after 8 days; type: functional, cell-based; conditions: NCI-H1573, 192 h

SMILES: C/C=C/Cn1cc(-c2ccc(C(C)(C)O)cc2OC)c2cc[nH]c2c1=O
- Activity [1]: inactive
- Activity [2]: inactive
- Activity [3]: inactive
- Activity [4]: inactive
- IC50 [5]: 3.63 µM

SMILES: C/C=C/Cn1cc(-c2cc(OC)c(C(=O)N3CCOCC3)cc2OC)c2cc(C)[nH]c2c1=O
- inhibition [6]: Active
- Activity [7]: inactive
- IC50 [8]: 5 µM
- IC50 [9]: 5 µM
- IC50 [10]: 5 µM
- IC50 [11]: 5 µM
- IC50 [12]: 5 µM
- IC50 [13]: 5 µM
- IC50 [14]: 5 µM
- IC50 [15]: 5 µM
- IC50 [16]: 5 µM
- IC50 [17]: 5 µM
- IC50 [18]: 5 µM
- IC50 [19]: 5 µM
- IC50 [20]: 5 µM
- IC50 [21]: 5 µM
- IC50 [22]: 5 µM
- IC50 [23]: 5 µM
- IC50 [24]: 5 µM
- IC50 [25]: 5 µM
- IC50 [26]: 5 µM
- IC50 [27]: 5 µM
- IC50 [28]: 5 µM
- IC50 [29]: 5 µM
- IC50 [30]: 5 µM
- IC50 [31]: 5 µM
- IC50 [32]: 5 µM
- IC50 [33]: 5 µM
- IC50 [34]: 5 µM
- IC50 [35]: 5 µM
- IC50 [36]: 5 µM
- IC50 [37]: 5 µM
- IC50 [38]: 5 µM
- IC50 [39]: 5 µM
- IC50 [40]: 5 µM
- IC50 [41]: 5 µM
- IC50 [42]: 2 µM
- IC50 [43]: 2 µM
- IC50 [44]: 2 µM
